Test results from US9458135B2, “Dihydroquinoline-2-one derivatives” (Hoffmann-La Roche Inc., priority 2014, dated 2016).

Assays:
[1] = tested on: patients with primary aldosteronism; details: cited from earlier work
[2] = tested on: rat model of chronic kidney disease; details: cited from earlier work; for plasma aldosterone: FAD286 following 4 weeks of treatment, spironolactone at 4 and 8 weeks; for renal effects (albuminuria, azotemia, renovascular hypertrophy, glomerular injury, PAI-1 and osteopontin mRNA, tubulointerstitial fibrosis): angiotensin II and high salt treatment
human CYP11B2 = human CYP11B2 (Homo sapiens (Human), UniProt P19099); test: G-402 cellular enzyme assay, human CYP11B2 (aldosterone release, HTRF); type: cell-based; details: G-402 cells expressing human CYP11B2; 1 μM Deoxycorticosterone
Chain of human CYP11B2 (P19099 25-503): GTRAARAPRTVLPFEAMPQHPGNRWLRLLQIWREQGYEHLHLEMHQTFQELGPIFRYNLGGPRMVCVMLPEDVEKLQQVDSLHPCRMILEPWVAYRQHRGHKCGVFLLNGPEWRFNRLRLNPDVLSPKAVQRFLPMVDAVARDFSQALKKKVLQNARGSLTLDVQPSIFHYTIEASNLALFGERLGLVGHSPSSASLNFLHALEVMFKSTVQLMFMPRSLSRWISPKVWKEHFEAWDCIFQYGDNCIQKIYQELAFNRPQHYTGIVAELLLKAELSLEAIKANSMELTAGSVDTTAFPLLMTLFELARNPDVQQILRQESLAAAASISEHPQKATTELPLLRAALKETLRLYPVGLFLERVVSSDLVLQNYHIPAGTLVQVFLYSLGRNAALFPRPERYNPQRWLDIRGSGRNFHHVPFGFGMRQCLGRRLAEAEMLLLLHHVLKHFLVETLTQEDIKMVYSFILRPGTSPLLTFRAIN
Description: (§1) Herein we identified the use of the G-402 cell line as a host cell to ectopically express (transiently or stably) enzymes of the CYP11 family. Specifically we developed stable G-402 cells expressing ectopically human CYP11B1, human CYP11B2, human CYP11A1, cynmolgus CYP11B1 or cynomolgus CYP11B2 enzyme activity. Importantly the identified cell line G-402 expresses co-factors (adrenodoxin and adrenodoxin reductase) important for the activity of the CYP11 family and no relevant enzyme activity of the CYP11 family (in comparison to H295R cells) was detected in these cells. Therefore the G-402 cell line is uniquely suited as a host cell for the ectopic expression of enzymes from the CYP11 family.
(§2) The expression plasmids contains the ORF for either huma/cyno CYP11B1 or CYP11B2 under the control of a suitable promoter (CMV-promoter) and a suitable resistance marker (neomycin). Using standard techniques the expression plasmid is transfected into G-402 cells and these cells are then selected for expressing the given resistance markers. Individual cell-clones are then selected and assessed for displaying the desired enzymatic activity using 11-Deoxycorticosterone (Cyp11B2) or 11-Deoxycortisol (Cyp11B1) as a substrate.
(§3) G-402 cells expressing CYP11 constructs were established as described above and maintained in McCoy's 5a Medium Modified, ATCC Catalog No. 30-2007 containing 10% FCS and 400 μg/ml G418 (Geneticin) at 37° C. under an atmosphere of 5% CO2/95% air. Cellular enzyme assays were performed in DMEM/F12 medium containing 2.5% charcoal treated FCS and appropriate concentration of substrate (0.3-10 uM 11-Deoxycorticosterone, 11-Deoxycortisol or Corticosterone). For assaying enzymatic activity, cells were plated onto 96 well plates and incubated for 16 h. An aliquot of the supernatant is then transferred and analyzed for the concentration of the expected product (Aldosterone for CYP11B2; Cortisol for CYP11B1). The concentrations of these steroids can be determined using HTRF assays from CisBio analyzing either Aldosterone or Cortisol.
(§4) Inhibition of the release of produced steroids can be used as a measure of the respective enzyme inhibition by test compounds added during the cellular enzyme assay. The dose dependent inhibition of enzymatic activity by a compound is calculated by means of plotting added inhibitor concentrations (x-axes) vs. measured steroid/product level (y-axes). The inhibition is then calculated by fitting the following 4-parameter sigmoidal function (Morgan-Mercer-Flodin (MMF) model) to the raw data points using the least squares method:
(§5) [formula] wherein, A is the maximum y value, B is the EC50 factor determined using XLFit, C is the minimum y value and D is the slope value.
(§6) EC50 values for compounds claimed herein were tested with the G402-based assay system described. Cyp11B2 enzyme activity was tested in presence of 1 μM Deoxycorticosterone and variable amounts of inhibitors; Cyp11B1 enzyme activity was tested in presence of 1 μM Deoxycortisol and variable amounts of inhibitors.

human CYP11B1 = human CYP11B1 (Homo sapiens (Human), UniProt P15538); test: G-402 cellular enzyme assay, human CYP11B1 (cortisol release, HTRF); type: cell-based; details: G-402 cells expressing human CYP11B1; 1 μM Deoxycortisol
Chain of human CYP11B1 (P15538 25-503): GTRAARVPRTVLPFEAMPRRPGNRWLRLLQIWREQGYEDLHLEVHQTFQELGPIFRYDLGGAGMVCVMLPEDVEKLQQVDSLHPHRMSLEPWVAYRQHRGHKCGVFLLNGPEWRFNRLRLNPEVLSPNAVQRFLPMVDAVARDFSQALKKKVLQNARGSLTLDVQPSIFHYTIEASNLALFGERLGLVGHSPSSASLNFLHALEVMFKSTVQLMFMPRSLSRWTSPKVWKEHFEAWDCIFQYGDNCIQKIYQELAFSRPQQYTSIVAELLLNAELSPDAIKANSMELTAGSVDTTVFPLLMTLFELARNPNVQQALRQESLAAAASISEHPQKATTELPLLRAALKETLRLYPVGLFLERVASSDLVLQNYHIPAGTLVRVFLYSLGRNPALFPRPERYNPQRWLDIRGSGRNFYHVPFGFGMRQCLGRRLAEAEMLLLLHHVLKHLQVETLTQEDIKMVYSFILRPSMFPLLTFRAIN
Description: as §1, §2, §3, §4, §5, §6

[3] = tested on: rats with experimental heart failure; details: cited from earlier work

EC50 (human CYP11B2) [nM] | EC50 (human CYP11B1) [nM] | SMILES | also measured
– | – | N#Cc1ccc([C@H]2CCc3cncn32)c(F)c1 [LCI699] | selectivity (effects on the glucocorticoid axis) [1]: poor selectivity; blood pressure ([1]; oral): mildly decreased; circulating aldosterone levels ([1]; oral): significantly lower; hypokalemia ([1]; oral): corrected
– | – | CC(=O)S[C@@H]1CC2=CC(=O)CC[C@]2(C)[C@H]2CC[C@@]3(C)[C@@H](CC[C@@]34CCC(=O)O4)[C@H]12 [spironolactone] | plasma aldosterone [2]: increased; renal effects (albuminuria, azotemia, renovascular hypertrophy, glomerular injury, PAI-1 and osteopontin mRNA, tubulointerstitial fibrosis) [2]: prevented these renal effects; angiotensin II and salt-stimulated PAI-1 mRNA expression in the aorta and the heart [2]: enhanced
0.1 | 4.2 | Cc1nccc(OCc2cncc(-c3ccc4c(c3)CCC(=O)N4C)c2)n1 [Example 9, 1-Methyl-6-[5-(2-methyl-pyrimidin-4-yloxymethyl)-pyridin-3-yl]-3,4-dihydro-1H-quinolin-2-one] | –
– | – | N#Cc1ccc([C@H]2CCCc3cncn32)cc1 [FAD286] | plasma aldosterone [2]: reduced; renal effects (albuminuria, azotemia, renovascular hypertrophy, glomerular injury, PAI-1 and osteopontin mRNA, tubulointerstitial fibrosis) [2]: prevented these renal effects; angiotensin II and salt-stimulated PAI-1 mRNA expression in the aorta and the heart [2]: not; blood pressure and cardiovascular function and structure [3]: improved; kidney function and morphology [3]: improve
0.2 | 9.1 | CN1C(=O)CCc2cc(-c3cncc(COc4cccc(Cl)n4)c3)ccc21 [Example 1, 6-[5-(6-Chloro-pyridin-2-yloxymethyl)-pyridin-3-yl]-1-methyl-3,4-dihydro-1H-quinolin-2-one] | –
0.2 | 6.3 | CN1C(=O)CCc2cc(-c3cncc(COc4ccc(F)cn4)c3)ccc21 [Example 2, 6-[5-(5-Fluoro-pyridin-2-yloxymethyl)-pyridin-3-yl]-1-methyl-3,4-dihydro-1H-quinolin-2-one] | –
0.5 | 14.3 | CN1C(=O)CCc2cc(-c3cncc(CSc4ncccc4C(F)(F)F)c3)ccc21 [Example 15, 1-Methyl-6-[5-(3-trifluoromethyl-pyridin-2-ylsulfanylmethyl)-pyridin-3-yl]-3,4-dihydro-1H-quinolin-2-one] | –
14.1 | 997 | CN1C(=O)CCc2cc(-c3cncc(COc4ncccc4F)c3)c(F)cc21 [Example 19, 7-Fluoro-6-[5-(3-fluoro-pyridin-2-yloxymethyl)-pyridin-3-yl]-1-methyl-3,4-dihydro-1H-quinolin-2-one] | –
0.1 | 4.8 | Cc1cccc(OCc2cncc(-c3ccc4c(c3)CCC(=O)N4C)c2)n1 [Example 3, 1-Methyl-6-[5-(6-methyl-pyridin-2-yloxymethyl)-pyridin-3-yl]-3,4-dihydro-1H-quinolin-2-one] | –
1.4 | 45.7 | CN1C(=O)CCc2cc(-c3cncc(CSc4ncccc4Cl)c3)ccc21 [Example 16, 6-[5-(3-Chloro-pyridin-2-ylsulfanylmethyl)-pyridin-3-yl]-1-methyl-3,4-dihydro-1H-quinolin-2-one] | –
2.2 | 14.5 | Cc1cccc(NC(=O)Cc2cncc(-c3ccc4c(c3)CCC(=O)N4C)c2)n1 [Example 28, 2-[5-(1-Methyl-2-oxo-1,2,3,4-tetrahydro-quinolin-6-yl)-pyridin-3-yl]-N-(6-methyl-pyridin-2-yl)-acetamide] | –
0.1 | 1.9 | CN1C(=O)CCc2cc(-c3cncc(COc4ccc(Cl)cn4)c3)ccc21 [Example 6, 6-[5-(5-Chloro-pyridin-2-yloxymethyl)-pyridin-3-yl]-1-methyl-3,4-dihydro-1H-quinolin-2-one] | –
0.3 | 16.3 | CN1C(=O)CCc2cc(-c3cncc(COc4cccc(Cl)n4)c3)c(F)cc21 [Example 21, 6-[5-(6-Chloro-pyridin-2-yloxymethyl)-pyridin-3-yl]-7-fluoro-1-methyl-3,4-dihydro-1H-quinolin-2-one] | –
2 | 216 | Cc1cccc(OCc2cncc(-c3cc4c(cc3F)N(C)C(=O)CC4)c2)n1 [Example 22, 7-Fluoro-1-methyl-6-[5-(6-methyl-pyridin-2-yloxymethyl)-pyridin-3-yl]-3,4-dihydro-1H-quinolin-2-one] | –
2.3 | 72.8 | CN1C(=O)CCc2cc(-c3cncc(COc4ncccc4C(F)(F)F)c3)ccc21 [Example 8, 1-Methyl-6-[5-(3-trifluoromethyl-pyridin-2-yloxymethyl)-pyridin-3-yl]-3,4-dihydro-1H-quinolin-2-one] | –
0.1 | 1.6 | CN1C(=O)CCc2cc(-c3cncc(COc4ccc(Cl)cn4)c3)c(F)cc21 [Example 20, 6-[5-(5-Chloro-pyridin-2-yloxymethyl)-pyridin-3-yl]-7-fluoro-1-methyl-3,4-dihydro-1H-quinolin-2-one] | –
6.8 | 40.5 | CN1C(=O)CCc2cc(-c3cncc(CC(=O)Nc4cccc(Cl)n4)c3)ccc21 [Example 30, N-(6-Chloro-pyridin-2-yl)-2-[5-(1-methyl-2-oxo-1,2,3,4-tetrahydro-quinolin-6-yl)-pyridin-3-yl]-acetamide] | –
0.3 | 0.9 | CN1C(=O)CCc2cc(-c3cncc(CSc4nc5ccccc5o4)c3)ccc21 [Example 13, 6-[5-(Benzooxazol-2-ylsulfanylmethyl)-pyridin-3-yl]-1-methyl-3,4-dihydro-1H-quinolin-2-one] | –
3.6 | 101 | CN1C(=O)CCc2cc(-c3cncc(COc4ncccn4)c3)ccc21 [Example 12, 1-Methyl-6-[5-(pyrimidin-2-yloxymethyl)-pyridin-3-yl]-3,4-dihydro-1H-quinolin-2-one] | –
